Key:
U937 cells [1] = assay: CD marker expression in PMA treated U937 cells (flow cytometry); assay type: cell-based, human
Description: Human monocytic U937 cells derived from pleural effusion were seeded at 5×10^5 cells/mL in a 24 well plate or on the underside of a culture insert with 3.25×10^5 cells per well with 100 nM phorbol 12-myristate 13-acetate (PMA) (dissolved in DMSO; <1% v/v) in complete RPMI medium (10% v/v FBS, 1% v/v penicillin-streptomycin, 2 mM L-glutamine). Cells were incubated for 72 h at 37° C., 5% v/v CO2 in a humidified incubator to differentiate the cells to mature macrophages. Following PMA incubation, media was replaced with fresh CCM and incubated for a further 24 h rest period. After the 24 h rest phase, U937/MØ were ready for co-culture assembly. U937/MØ cells were prepared in line with when epithelial cells were ready, i.e. day 5 for A549 and day 10 for hAELVi cells.
FIG. 3 illustrates the expression profiles of selected CD markers in PMA treated U937 cells and primary alveolar macrophages (pAM). CD markers are: (A) CD 11a, (B) CD 11b, (C) CD 14, (D) CD 36 and (E) CD 206. U937 cells treated with (0 nM, 5 nM, and 100 nM) PMA for 24 h to-96 h followed by a 24 h rest period in fresh culture medium. Expression of CD markers was measured by flow cytometry and are presented as median fluorescent intensity (MFI±SEM). […]

U937 cells [2] = assay: Phagocytic activity of PMA treated U937 cells; assay type: cell-based, human; details: 72 h, 100 nM PMA differentiation protocol
Text: FIG. 4 illustrates the phagocytic activity of PMA treated U937 cells and primary alveolar macrophages (pAM). Percentage of phagocytic cells (mean±SEM) from PMA treated U937 cells. (n=9) for each time point for U937 cells and n=3 for primary cells.

U937 cells [3] = assay: Morphology of U937 cells with exposure to PMA; assay type: cell-based, human; details: 72 h, 100 nM PMA differentiation protocol
Description: FIG. 5 illustrates the morphology of U937 cells with exposure to PMA. U937 cells were cultured on chamber slides with medium supplemented with either 0 nM, 5 nM or 100 nM PMA and incubated for 24 h, 48 h, 72 h and 96 h followed by a 24 h recovery phase in fresh medium. Non-adherent PMA naive cells required centrifuge preparation. Primary human alveolar macrophages were harvested for morphological comparison. The cells were photographed at ×400 magnification with an inverted light microscope. (50 um scale bar).

U937 cells [4] = assay: Long-term proliferation of PMA treated U937 cells (Guava ViaCount assay); assay type: cell-based, human; details: 100 nM PMA
Description: FIG. 6 illustrates the long-term proliferation of PMA treated U937 cells. […] Cell proliferation was assessed using Guava ViaCount assay via flow cytometry for 10,000 events. Results shown are representative for two repeated experiments performed in triplicate. Viable cells/mL are shown as mean±SD.

[5] = test system: differentiated U937 cells; assay: Phospholipidosis accumulation in differentiated U937 cells in co-culture set ups (HCS LipidTOX Green); assay type: cell-based, human; details: 10 μM amiodarone; differentiated U937 cells in three co-culture set ups
Description: The phospholipid accumulation was assessed using HCS LipidTOX™ Green phospholipidosis detection reagent. Phospholipidosis accumulation was detected in differentiated U937 cells cultured in LLI in three different co-culture set ups: A) Type I/II cells cultured in mixed 10:1 ratio in apical compartment, differentiated U937 (lilac) cells cultured at the basolateral compartment B) Type I/II cells cultured as a layers in a 10:1 ratio in apical compartment, differentiated U937 cells cultured at the basolateral compartment (blue), C) Type I cells cultured in the apical compartment and differentiated U937 cells were seeded on the underside of Transwell® inserts (green). […] A total of 5000 events were acquired on the flow cytometer.

[6] = test system: differentiated U937 cells (MØ), T I model, T II model; assay: CD marker expression in LPS stimulated alveoli models (flow cytometry); assay type: cell-based, human; details: 10 ng/mL LPS, 24 h
Description: FIG. 17 illustrates CD marker expressions in LPS stimulated and non-stimulated alveoli models. Differentiated U937 cells (MØ), MØ cells cultured with hAELVi cells (T I model) or A549 cells (T II model) exposed to 10 ng/mL LPS (+LPS) for 24 h. Direct immunofluorescent staining assays for CD 11 b (A &C) and CD 36 (B & D) surface markers were performed using flow cytometry. A total of 5000 gated events were collected for each sample. MFI (median fluorescent intensity) data shown as mean±sd (n=9) for 3 independent models for Dunnett's post hoc test after one-way ANOVA where *#:p<0.005, *** :p<0.0001 vs MØ and MØ+LPS respectively.

[7] = test system: MØ, T I model, T II model; assay: Human cytokine profile of mono-culture and co-culture models in LPS (array membranes); assay type: cell-based; details: LPS 100 ng/mL, 24 h
Description: FIG. 18 illustrates human cytokine profile of lower airway for ALI cell models. Detection of spots on array membranes from supernatant collect from mono-culture and co-cultures of: differentiated U937 cells (MØ) with LPS (MØ+LPS), hAELVi TI cells (T I), A549 TII cells (T II), type I co-culture model: hAELVi and MØ (T I model) with LPS (T I model+LPS), type II co-culture model: A549 and MØ (T II model) with LPS (T II model+LPS). Models were untreated or stimulated with 100 ng/mL LPS for 24 h. Controls are shown as positive (green) and negative (red). Data represents four independent Transwell® inserts. […] The data analysed in more detail in below figures.
FIG. 21 illustrates human cytokine profile of lower airway; T I &T I I models in the presence of LPS. […] Data represents mean signal intensity (AU) of each protein spot from the blot detected using chemiluminescence imaging and quantified using imageJ software for four independent Transwell® inserts±sd. […]
FIG. 22 illustrates human cytokine profile of lower airway of mono-culture and co-culture models in LPS. […] Data analysed by two-way ANOVA with Bonferroni post hoc test of non-stimulated cells vs LPS stimulation. […]

[8] = test system: differentiated U937 cells (MØ); assay: Phagocytic activity of differentiated U937 cells in mono-culture and co-cultures in the presence of LPS; assay type: cell-based, human; details: 10 ng/mL LPS, 24 h; both co-culture systems
Description: FIG. 23 illustrates a comparison of macrophages in mono-culture and co-cultures phagocytosis of microspheres. Differentiated U937 cells (MØ), MØ cells cultured with hAELVi cells (T I model) or A549 cells (T II model) exposed to 10 ng/mL LPS (+LPS) for 24 h. Phagocytosis assays were performed after 2 h incubation with 1.0 μm FluoSpheres™ Carboxylate-Modified microspheres using fluorescent microscopy. Images at 40× magnification. Scale bar is 100 μm.
FIGS. 24A and 24B illustrate phagocytic activity of differentiated U937 cells (MØ) in mono-culture and co-cultures in the presence of LPS. MØ cells cultured with hAELVi cells (T I model) or A549 cells (T II model) exposed to 10 ng/mL LPS (+LPS) for 24 h. Phagocytosis assays were performed after 2 h incubation with 1.0 μm FluoSpheres™ Carboxylate-Modified microspheres using flow cytometry. Cells were gated for 1000 events (A) per sample. […] Percentage of cells above the gated (R3) threshold (B) of mono and co-cultures. A one way ANOVA was used to determine significance for each treatment group and Tukey's multiple comparison post hoc test employed when* p<0.05, *** : p<0.0001 where n=3 independent models.

[9] = test system: T I model (hAELVi + MØ), T II model (A549 + MØ); assay: LDH release from co-cultures with LPS (cell health); assay type: cell-based, human; details: 10 ng/mL LPS, 24 h; both co-culture models
Description: FIGS. 25A and 25B illustrate the comparison of mono-culture and co-culture construction on cell health. Percentage of maximum LDH released into supernatants from cell populations normalised to 0.1% v/v Triton-X 100 positive control. LDH released from co-cultures: (T I) hAELVi and (T II) A549 cells in co-culture with MØ cells were assessed (A). MØ cells cultured with hAELVi cells (T I model) or A549 cells (T II model) were exposed to 10 ng/mL LPS (+LPS) for 24 h (B). A one way ANOVA was used to determine significance for each treatment group and Tukey's multiple comparison post hoc test employed when* p<0.05, p<0.001 Data shown represent n=6 data points±SD of three independent cell model experiments.

[10] = test system: hAELVi and A549 cells in co-culture with MØ cells; assay: TEER of alveolar epithelial cells in co-culture with LPS; assay type: cell-based, human; details: 10 ng/mL LPS, 24 h
Description: FIGS. 26A and 26B illustrate the impact of LPS on barrier properties of alveolar epithelial cells in co-culture. TEER measurements of (T I) hAELVi and (T II) A549 cells in co-culture with MØ cells. MØ cells cultured with hAELVi cells (T I model) or A549 cells (T II model) were exposed to 10 ng/mL LPS (+LPS) for 24 h. A one-way ANOVA was used to determine significance for each treatment group. Data shown represent n=3 of three independent cell model experiments (p>0.05).

co-culture models = assay: IL-8 secretion of co-culture models after LPS (ELISA); assay type: cell-based, human; details: 100 ng/ml LPS
Description: FIG. 36 illustrates extent of immune response using IL-8 secretion. […] IL-8 levels detected from supernatants of co-culture models cultured under LLI/ALI post exposure to 100 ng/ml LPS. The IL-8 levels were quantified using ELISA assay. […] N=4, * indicates (p<0.05).

Q: What does the source list for `CCCCCCCCCCCCCC(=O)O[C@@H]1[C@@H](C)[C@@]2(O)[C@@H](C=C(CO)C[C@]3(O)C(=O)C(C)=C[C@@H]23)[C@@H]2C(C)(C)[C@]12OC(C)=O` [PMA, phorbol-12-myristate-13-acetate]?
A: expression of CD36 and CD206 (M2 markers) (U937 cells [1]; PMA treated U937 cells): low; expression of cell surface markers selected to identify an alveolar macrophage phenotype (CD 11a, CD 11b, CD 14) (U937 cells [1]; U937 cells, 100 nM PMA, 72 h, 24 h rest, compared with primary human alveolar macrophages): optimally expressed; phagocytic functionality (U937 cells [2]): same phagocytic functionality of primary human alveolar macrophages; cell morphology (U937 cells [3]): most similar morphology to primary human alveolar macrophages; cell proliferation (U937 cells [4]; 24 h exposure): reduced; cell proliferation (U937 cells [4]; 96 h exposure): no

Q: How did the phospholipidosis accumulation [5] turn out when `CCCCc1oc2ccccc2c1C(=O)c1cc(I)c(OCCN(CC)CC)c(I)c1` [amiodarone] was run?
A: The phospholipidosis accumulation was “detected”.

Q: Which results are given for lipopolysaccharide [LPS]?
A: macrophage activation (CD11 b expression, absence of CD36 expression) [6]: likely to drive the macrophages to M1 type activation; cytokine markers (signal intensity on array) [7]: elevated; ability to phagocytose (1.0 μm microspheres) [8]: retain their ability to phagocytose; cell viability (LDH release) [9]: not adversely affected; barrier properties of the alveolar type I epithelial cells (TEER) [10]: not compromised; IL-8 secretion (co-culture models; all models): significantly increased; IL-8 secretion (co-culture models; combination type I and II epithelial models): significantly elevated

Reference: patent US20230158068A1 (priority 2020, published 2023)
